The record followed here is patent US8946426B2, “Substituted bicyclic heterocyclic compounds as gamma secretase modulators” (Janssen Pharmaceuticals, Inc., priority 2009, dated 2015).

As a reminder, the IC50 is the midpoint of a concentration-inhibition curve.

The structures appear in SMILES notation.

Assay [1] concerns Notch-processing activity of the γ-secretase-complex. Kind of assay: Notch cell-free assay (NICD production from recombinant Notch substrate N99). Type of assay: biochemical. The following applies: 1 μM test compound; 0.3-0.5 μM mouse Notch substrate; enriched gamma secretase; 37° C., 6 to 22 h; western blot; control GSI concentration not given. On the procedure: The Notch transmembrane domain is cleaved by gamma secretase to release Notch Intracellular C-terminal Domain (NICD).
To monitor the effect of compounds on NICD production, a recombinant Notch substrate (N99) was prepared. The Notch substrate, comprised of mouse Notch fragment (V1711-E1809), an N-terminal methionine and a C-terminal FLAG sequence ([…]), was expressed in E. coli and purified on a column containing an anti-FLAG M2 affinity matrix.
A typical Notch cell-free assay consisted of 0.3-0.5 μM Notch substrate, an enriched preparation of gamma secretase and 1 μM of a test compound (compounds 16, 18 and 106 of the present invention). Controls included a gamma secretase inhibitor (GSI), such as (2S)—N-[2-(3,5-difluorophenyl)acetyl]-L-alanyl-2-phenyl-glycine 1,1-dimethylethyl ester (DAPT) or (2S)-2-hydroxy-3-methyl-N-[(1S)-1-methyl-2-oxo-2-[[(1S)-2,3,4,5-tetrahydro-3-methyl-2-oxo-1H-3-benzazepin-1-yl]amino]ethyl]-butanamide (Semagacestat), and DMSO, the final concentration of DMSO being 1%. Recombinant Notch substrate was pre-treated with 17 μM DTT (1,4-dithiothreitol) and 0.02% SDS (Sodium Dodecyl Sulfate) and heated at 65° C. for 10 min. The mixture of substrate, gamma secretase and compound/DMSO was incubated at 37° C. for 6 to 22 hours (h). Six-hour incubation was sufficient to produce the maximal amount of NICD and the cleaved product remained stable for an additional 16 H. Reaction products were processed for SDS PAGE (Sodium Dodecyl Sulfate-Poly Acrylamide Gel Electrophoresis) and western blotting. Blots were probed with an anti-Flag M2 antibody, followed by LI-COR infrared secondary antibody, and analyzed with the Odyssey Infrared Imaging System (LI-COR® Biosciences).
(In western blotting, separated proteins are transferred to a membrane and probed.)

The subject of the next assay is mouse Notch2. Kind of assay: Notch cell-based assay (N2-CHO/DL-CHO co-culture, Dual-Glo luciferase, NICD production). As to conditions: Mus musculus; N2-CHO/DL-CHO co-culture 16 H; five-point curve 3 μM-0.3 nM; read-out: average IC50 values from the Notch cell-based assay (luciferase assay readouts). From the text: The Notch cell-based assay was based on the interaction of Notch and its ligand in a co-culture system and utilized the Dual-Glo Luciferase Assay System (Promega) to monitor NICD production. Two stable cell lines, N2-CHO and DL-CHO, were established to express full-length mouse Notch2 and Delta respectively. Cells that expressed mouse Notch were also transfected with two plasmids, pTP1-Luc and pCMV-RLuc, to express firefly and Renilla luciferase. Expression of firefly luciferase was under the control of TP1 promoter that responded to NICD activation.
N2-CHO cells were seeded at 1×10^5/well in 24-well plates the day before transfection. On the second day, cells were double transfected with 3 μg/well pTP1-Luc (expressing firefly luciferase) and 0.3 ng/well pCMV-RLuc (expressing Renilla luciferase). After 6 H incubation, transfected N2-CHO cells were washed and DL-CHO cells (2×10^5 cells/well) were added.
Compounds were pre-mixed with DL-CHO cell suspension in a five-point curve. Typically, compound treatment was performed in duplicate with a serial 1:10 dilution (3 μM-0.3 nM) in DMSO. The final concentration of DMSO in a given culture was 1%. Controls included non-transfected cells and transfected cells treated with a GSI or DMSO only. Luciferase assays were performed after 16 H co-culture and compound treatment.
The luciferase assay was carried out according to manufacture's instructions. Briefly, cells were washed with PBS (Phosphate Buffered Saline), lysed with Passive Lysis Buffer (Promega), and incubated at room temperature for 20 min. Lysates were mixed with Dual-Glo Luciferase Reagent and the firefly luciferase activity was measured by reading the luminescence signal in the EnVision 2101 Multilabel reader. Dual-Glo Stop & Glo Reagent was then added to each well and the Renilla luciferase signal was measured.

As for `C[C@H](NC(=O)Cc1cc(F)cc(F)c1)C(=O)NC(C(=O)OC(C)(C)C)c1ccccc1` (stereo partly drawn) [DAPT, (2S)—N-[2-(3,5-difluorophenyl)acetyl]-L-alanyl-2-phenyl-glycine 1,1-dimethylethyl ester, reference compound], in assay [1], the “effect on the Notch-processing activity of the γ-secretase-complex (production of NICD)” value is “blocked”. For the same compound, in the assay with mouse Notch2, the half-inhibitory concentration (IC50) turned out to be 45 nM.
Turning to `CC(C)[C@H](O)C(=O)N[C@@H](C)C(=O)N[C@@H]1C(=O)N(C)CCc2ccccc21` [Semagacestat, (2S)-2-hydroxy-3-methyl-N-[(1S)-1-methyl-2-oxo-2-[[(1S)-2,3,4,5-tetrahydro-3-methyl-2-oxo-1H-3-benzazepin-1-yl]amino]ethyl]-butanamide, reference compound], in assay [1], the “effect on the Notch-processing activity of the γ-secretase-complex (production of NICD)” value is reported as “blocked”. Also, the concentration for half-maximal inhibition (IC50) in the assay on mouse Notch2 stood at 40 nM.
